In the C3SDB collision cross section collection:

Key:
[1] = instrument: DT, stepped-field
[2] = instrument: DT, single field, calibrated with Agilent tune mix (Agilent)

Row | SMILES | collision cross section (N2) ([1]; [M+Na]+) | collision cross section (N2) ([1]; [M+H]+) | also measured
1 | CO[C@@H]1O[C@H](CO)[C@H](O)[C@H](O)[C@H]1O [Methyl beta-D-galactoside] | 149.97 Å² |  | 
2 | O=C[C@H](O)COP(=O)(O)O [D-Glyceraldehyde 3-Phosphate] |  | 135.86 Å² | 
3 | O=P(O)(O)OC[C@H]1O[C@H](O[C@H]2O[C@H](CO)[C@@H](O)[C@H](O)[C@H]2O)[C@H](O)[C@@H](O)[C@@H]1O [Trehalose 6-Phosphate] | 192.43 Å² |  | 
4 | OC[C@H]1OC(O)[C@H](O)[C@@H](O)[C@H]1O (stereo partly drawn) [D-Galactose] | 142.39 Å² |  | 
5 | O=C1C=Cc2cccc3cccc1c23 [Perinaphthenon] |  | 134.59 Å² | 
6 | Cc1ccc2ccccc2c1 [2-methylnaphthalene] |  | 124.57 Å² | 
7 | C[N+](C)(C)CCOP(=O)(O)O [Phosphocholine] |  | 138.54 Å² | 
8 | CCCCC/C=C/C/C=C\C[C@@H]1O[C@@H]1C/C=C\CCCC(=O)O [8(9)-EET] | 186.83 Å² |  | 
9 | Nc1nc(=O)c2c([nH]1)NCC(CNc1ccc(C(=O)N[C@@H](CCC(=O)O)C(=O)O)cc1)=N2 [Dihydrofolate] |  | 193.63 Å² | 
10 | Nc1nc(=O)c2ncn([C@H]3C[C@H](O)[C@@H](COP(=O)(O)O)O3)c2[nH]1 [2'-Deoxyguanosine 5'-Monophosphate] | 173.87 Å² | 178.96 Å² | 
11 | CCCCC/C=C\C[C@@H](O)/C=C/C=C/C=C\[C@@H](O)CCCC(=O)O [Leukotriene B4] | 196.05 Å² |  | 
12 | CCCCC[C@H](O)/C=C/C=C\C=C\C=C\[C@@H](O)[C@@H](O)CCCC(=O)O [Lipoxin A4] | 197.89 Å² |  | 
13 | CCCCC[C@H](O)/C=C/[C@@H]1[C@@H](C/C=C\CCCC(=O)O)[C@@H]2C[C@H]1OO2 [Prostaglandin H2] | 202.63 Å² |  | 
14 | COc1ccc(-c2cc(=O)c3c(O)cc(O)cc3o2)cc1 [Acacetin] |  | 167.06 Å² | 
15 | CCCCC/C=C\C=C\C(=O)CCCCCCCC(=O)O [9-OxoODE] | 199.5 Å² | 184.2 Å² | 
16 | Nc1c(O)cccc1C(=O)CC(N)C(=O)O (racemic) [3-Hydroxy-DL-kynurenine] | 160.83 Å² | 157.67 Å² | 
17 | CCCCCCCCCCCC(=O)O[C@H](CC(=O)[O-])C[N+](C)(C)C [Lauroyl-L-carnitine] | 217.5 Å² |  | 
18 | COc1cc(O)c2c(c1)O[C@H](c1ccccc1)CC2=O [Pinostrobin] |  | 164.24 Å² | 
19 | O=P(O)(O)OC[C@H]1OC(O)[C@H](O)[C@@H]1O (stereo partly drawn) [D-Ribose 5-Phosphate] | 155.8 Å² |  | 
20 | O=C(CO)[C@@H](O)[C@H](O)CO [D-Xylulose] | 141.76 Å² |  | 
21 | CCNc1nc(Cl)nc(NC(C)C)n1 [Atrazine] |  | 150.74 Å² | 
22 | C=C[C@H]1[C@H](O[C@@H]2O[C@H](CO)[C@@H](O)[C@H](O)[C@H]2O)OC=C(C(=O)OC)[C@H]1CC=O [Secologanin] | 191.96 Å² |  | 
23 | CCCCC/C=C\C/C=C\C/C=C\C/C=C\CCCCCC(=O)OC[C@@H](COC(=O)CCCCCCCCCCCCCCC)OC(=O)CCCCCCC/C=C\CCCCCCC [TG(55:5)] |  |  | collision cross section (N2) ([2]; [M+NH4]+): 324.6 Å²
24 | CCCCCCCC/C=C\CCCCCCCCCC(=O)O[C@H](COC(=O)CCCCCCCCCCCCCC)COP(=O)(O)O[C@H]1C(O)C(O)C(O)[C@@H](O)C1O (some centres undefined) [PI(35:1)] |  |  | collision cross section (N2) ([2]; [M+NH4]+): 298.1 Å²; collision cross section (N2) ([2]; [M-H]-): 286.9 Å²
25 | CCCCC/C=C\C/C=C\CCCCCCCCCCCC(=O)O[C@H](COC(=O)CCCCCCC/C=C\CCCCC)COP(=O)(O)O[C@H]1C(O)C(O)C(O)[C@@H](O)C1O (some centres undefined) [PI(37:3)] |  |  | collision cross section (N2) ([2]; [M+NH4]+): 301.4 Å²; collision cross section (N2) ([2]; [M+Na]+): 298.9 Å²; collision cross section (N2) ([2]; [M-H]-): 290.1 Å²
26 | CCCCCCCC/C=C\CCCCCCCCCC(=O)OC[C@@H](O)COP(=O)(O)OC[C@H](N)C(=O)O [LPS(20:1)] |  |  | collision cross section (N2) ([2]; [M+H]+): 231.8 Å²
27 | CCCCC/C=C\C/C=C\CCCCCCCC(=O)OC[C@@H](O)COP(=O)([O-])OCC[N+](C)(C)C [LPC(18:2)] |  |  | collision cross section (N2) ([2]; [M+HCOO]-): 235.2 Å²; collision cross section (N2) ([2]; [M+H]+): 226.8 Å²; collision cross section (N2) ([2]; [M+Na]+): 231.9 Å²
28 | CCCCCCCCCCCCC=CC[C@@H](O)[C@H](CO)NC(=O)CCCCCCCCCCCCCCCCCC [Cer(37:1)] |  |  | collision cross section (N2) ([2]; [M+HCOO]-): 258.9 Å²; collision cross section (N2) ([2]; [M+H]+): 263.4 Å²; collision cross section (N2) ([2]; [M+Na]+): 269.8 Å²
29 | CCCCCCCCCCCCC=CC[C@@H](O)[C@H](CO)NC(=O)CCCCCCCCCCCCCCCCCCCCCCCC [Cer(43:1)] |  |  | collision cross section (N2) ([2]; [M+H]+): 282 Å²
